# Results reported in patent publication US5470830A, “Motilin-like polypeptides that inhibit gastrointestinal motor activity” (Ohmeda Pharmaceutical Products Division Inc., priority 1993, dated 1995).
# Structures can show the parent of a compound that is named as a salt. Where a SMILES comes first, the peptide text is derived from it. [ ]: non-standard residue; d: D form. 2Nal = N[C@@H](Cc1ccc2ccccc2c1)C(=O)O; NMeF = CN[C@@H](Cc1ccccc1)C(=O)O; 3Pal = N[C@@H](Cc1cccnc1)C(=O)O; Cha = N[C@@H](CC1CCCCC1)C(=O)O
# What was measured:
# [1] = biological target: T1, motilin receptor (rabbit antral smooth muscle membranes) (Oryctolagus cuniculus, UniProt G1T803); assay: Motilin receptor binding affinity: displacement of [125I-Tyr7,Nle13]motilin(porcine); details: negative logarithm of concentration displacing 50% of [125I-Tyr7,Nle13]motilin(porcine) from rabbit antral smooth muscle membranes; read-out: pIC50 (converted)
# T1 construct: from tissue; host or cells: rabbit antral smooth muscle membranes
# Description: The motilin receptor binding affinity of the peptides of this invention was determined by using the general procedure of Bormans, Peelers and Vantrappen, Regul. Pept., 15, 143-153 (1986). The ability of the peptides to displace [^125 I-Tyr^7,Nle^13 ]motilin(porcine) bound to rabbit antral smooth muscle membranes, was determined by testing twice, each time in duplicate, at concentrations ranging from 10^-11 to 10^-4 M. The concentration displacing 50% of the label (IC50) was determined by fitting the data to the equation describing displacement, assuming a single class of motilin receptors to which labeled and non-labeled motilin bind with equal affinity and non-cooperatively. Fitting was performed using the iterative least-squares procedure of the SAS-software package (SAS Institute, Inc., Cary, N.C., U.S.A.). […] The concentration displacing 50% of the label is expressed using its negative logarithm (pIC50).
# [2] = biological target: segments of rabbit duodenum (Oryctolagus cuniculus, UniProt G1T803); assay: Rabbit duodenal smooth muscle strip tissue bath assay (contractile response); format: cell-based; details: contractility; negative logarithm of dose giving 50% of maximal response to motilin; compounds tested 10^-11 to 10^-4 M
# Description: The experimental protocol consisted of an equilibration period of 1 hour: a challenge with 10^-4 M acetylcholine followed by a wash-out period; a cumulative dose-response curve of a compound with, at the end, the addition of 10^-7 M motilin; and finally 10^-4 M acetylcholine. If the final response to 10^-4 M acetylcholine differed by more than 5% from the initial response, the results were discarded.
# T1 sequence (G1T803 1-400): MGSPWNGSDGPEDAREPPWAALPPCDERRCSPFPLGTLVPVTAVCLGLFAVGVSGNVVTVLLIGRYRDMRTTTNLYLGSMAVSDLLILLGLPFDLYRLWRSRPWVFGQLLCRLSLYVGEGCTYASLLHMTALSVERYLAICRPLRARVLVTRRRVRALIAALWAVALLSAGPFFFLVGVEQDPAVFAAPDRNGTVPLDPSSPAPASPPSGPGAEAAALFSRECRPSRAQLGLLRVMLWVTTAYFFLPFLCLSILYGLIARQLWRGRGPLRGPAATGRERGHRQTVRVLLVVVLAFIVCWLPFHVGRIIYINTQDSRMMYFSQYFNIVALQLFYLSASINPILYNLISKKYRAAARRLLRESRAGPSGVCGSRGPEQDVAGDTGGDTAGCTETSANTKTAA
# Chain of segments of rabbit duodenum (G1T803 1-400): as above
IC50 [1] [nM],pEC50 [2],Compound
29.5,< 4.5,"CC[C@H](C)[C@H](NC(=O)[C@H](Cc1ccccc1)NC(=O)[C@@H](NC(=O)[C@@H](N)CC1CCCCC1)C(C)C)C(=O)N[C@@H](Cc1ccccc1)C(=O)N[C@H](C(=O)N[C@@H](Cc1ccc(O)cc1)C(=O)NCC(=O)N[C@@H](CCC(=O)O)C(=O)N[C@@H](CC(C)C)C(=O)N[C@@H](CCC(N)=O)C(=O)N[C@@H](CCCNC(=N)N)C(=O)N[C@@H](CC(C)C)C(=O)N[C@@H](CCC(N)=O)C(=O)O)[C@@H](C)O [[Cha^1, Phe^3, Leu^13]pMOT(1-14), H-Cha-Val-Phe-Ile-Phe-Thr-Tyr-Gly-Glu-Leu-Gln-Arg-Leu-Gln-OH] (H-[Cha]VFIFTYGELQRLQ-OH)"
20.9,< 4.5,"CC[C@H](C)[C@H](NC(=O)[C@H](CC1CCCCC1)NC(=O)[C@@H](NC(=O)[C@@H](N)Cc1ccccc1)C(C)C)C(=O)N[C@@H](Cc1ccccc1)C(=O)N[C@H](C(=O)N[C@@H](Cc1ccc(O)cc1)C(=O)NCC(=O)N[C@@H](CCC(=O)O)C(=O)N[C@@H](CC(C)C)C(=O)N[C@@H](CCC(N)=O)C(=O)N[C@@H](CCCNC(=N)N)C(=O)N[C@@H](CC(C)C)C(=O)N[C@@H](CCC(N)=O)C(=O)O)[C@@H](C)O [[Cha^3, Leu^13]pMOT(1-14), H-Phe-Val-Cha-Ile-Phe-Thr-Tyr-Gly-Glu-Leu-Gln-Arg-Leu-Gln-OH] (H-FV[Cha]IFTYGELQRLQ-OH)"
229,< 4.5,"CC[C@H](C)[C@H](NC(=O)[C@H](Cc1ccccc1)NC(=O)[C@@H](NC(=O)[C@H](N)Cc1ccccc1)C(C)C)C(=O)N[C@@H](Cc1ccccc1)C(=O)N[C@H](C(=O)N[C@@H](Cc1ccc(O)cc1)C(=O)NCC(=O)N[C@@H](CCC(=O)O)C(=O)N[C@@H](CC(C)C)C(=O)N[C@@H](CCC(N)=O)C(=O)N[C@@H](CCCNC(=N)N)C(=O)N[C@@H](CC(C)C)C(=O)N[C@@H](CCC(N)=O)C(=O)O)[C@@H](C)O [[D-Phe^1, Phe^3, Leu^13]pMOT(1-14), H-D-Phe-Val-Phe-Ile-Phe-Thr-Tyr-Gly-Glu-Leu-Gln-Arg-Leu-Gln-OH] (H-[dF]VFIFTYGELQRLQ-OH)"
8.13,< 4.5,"CC[C@H](C)[C@H](NC(=O)[C@@H](Cc1ccccc1)NC(=O)[C@@H](NC(=O)[C@@H](N)Cc1ccccc1)C(C)C)C(=O)N[C@@H](Cc1ccccc1)C(=O)N[C@H](C(=O)N[C@@H](Cc1ccc(O)cc1)C(=O)NCC(=O)N[C@@H](CCC(=O)O)C(=O)N[C@@H](CC(C)C)C(=O)N[C@@H](CCC(N)=O)C(=O)N[C@@H](CCCNC(=N)N)C(=O)N[C@@H](CC(C)C)C(=O)N[C@@H](CCC(N)=O)C(=O)O)[C@@H](C)O [[D-Phe^3, Leu^13]pMOT(1-14), H-Phe-Val-D-Phe-Ile-Phe-Thr-Tyr-Gly-Glu-Leu-Gln-Arg-Leu-Gln-OH] (H-FV[dF]IFTYGELQRLQ-OH)"
158,< 4.5,"CC[C@H](C)[C@H](NC(=O)[C@H](Cc1cccnc1)NC(=O)[C@@H](NC(=O)[C@@H](N)Cc1ccccc1)C(C)C)C(=O)N[C@@H](Cc1ccccc1)C(=O)N[C@H](C(=O)N[C@@H](Cc1ccc(O)cc1)C(=O)NCC(=O)N[C@@H](CCC(=O)O)C(=O)N[C@@H](CC(C)C)C(=O)N[C@@H](CCC(N)=O)C(=O)N[C@@H](CCCNC(=N)N)C(=O)N[C@@H](CC(C)C)C(=O)N[C@@H](CCC(N)=O)C(=O)O)[C@@H](C)O [[Pal^3, Leu^13]pMOT(1-14), H-Phe-Val-Pal-Ile-Phe-Thr-Tyr-Gly-Glu-Leu-Gln-Arg-Leu-Gln-OH] (H-FV[3Pal]IFTYGELQRLQ-OH)"
25.1,< 4.5,"CC[C@H](C)[C@H](NC(=O)[C@H](Cc1ccccc1)NC(=O)[C@@H](NC(=O)[C@@H](N)Cc1ccccc1)C(C)C)C(=O)N[C@@H](CC1CCCCC1)C(=O)N[C@H](C(=O)N[C@@H](Cc1ccc(O)cc1)C(=O)NCC(=O)N[C@@H](CCC(=O)O)C(=O)N[C@@H](CC(C)C)C(=O)N[C@@H](CCC(N)=O)C(=O)N[C@@H](CCCNC(=N)N)C(=O)N[C@@H](CC(C)C)C(=O)N[C@@H](CCC(N)=O)C(=O)O)[C@@H](C)O [[Phe^3, Cha^5, Leu^13]pMOT(1-14), H-Phe-Val-Phe-Ile-Cha-Thr-Tyr-Gly-Glu-Leu-Gln-Arg-Leu-Gln-OH] (H-FVFI[Cha]TYGELQRLQ-OH)"

# The next lines start with the compound.
Compound,IC50 [1] [nM],pEC50 [2]
CC[C@H](C)[C@H](NC(=O)[C@H](Cc1ccccc1)NC(=O)[C@@H](NC(=O)[C@@H](N)Cc1ccccc1)C(C)C)C(=O)N[C@@H](Cc1ccccc1)C(=O)N[C@H](C(=O)N[C@@H](Cc1ccc(O)cc1)C(=O)NCC(=O)N[C@@H](CCC(=O)O)C(=O)N[C@@H](CC(C)C)C(=O)N[C@@H](CCC(N)=O)C(=O)N[C@@H](CCCNC(=N)N)C(=O)N[C@@H](CC(C)C)C(=O)N[C@H](CCC(N)=O)C(N)=O)[C@@H](C)O [H-Phe-Val-Phe-Ile-Phe-Thr-Tyr-Gly-Glu-Leu-Gln-Arg-Leu-D-Gln-NH2] (H-FVFIFTYGELQRL[dQ]-NH2),0.977,< 4.5
"CC[C@H](C)[C@H](NC(=O)[C@H](Cc1ccc2ccccc2c1)NC(=O)[C@@H](NC(=O)[C@@H](N)Cc1ccccc1)C(C)C)C(=O)N[C@@H](Cc1ccccc1)C(=O)N[C@H](C(=O)N[C@@H](Cc1ccc(O)cc1)C(=O)NCC(=O)N[C@@H](CCC(=O)O)C(=O)N[C@@H](CC(C)C)C(=O)N[C@@H](CCC(N)=O)C(=O)N[C@@H](CCCNC(=N)N)C(=O)N[C@@H](CC(C)C)C(=O)N[C@@H](CCC(N)=O)C(=O)O)[C@@H](C)O [[2-Nal^3, Leu^13]pMOT(1-14), H-Phe-Val-2-Nal-Ile-Phe-Thr-Tyr-Gly-Glu-Leu-Gln-Arg-Leu-Gln-OH] (H-FV[2Nal]IFTYGELQRLQ-OH)",27.5,< 4.5
"CC[C@H](C)[C@H](NC(=O)[C@H](Cc1ccccc1)NC(=O)[C@@H](NC(=O)[C@H](Cc1ccccc1)NC)C(C)C)C(=O)N[C@@H](Cc1ccccc1)C(=O)N[C@H](C(=O)N[C@@H](Cc1ccc(O)cc1)C(=O)NCC(=O)N[C@@H](CCC(=O)O)C(=O)N[C@@H](CC(C)C)C(=O)N[C@@H](CCC(N)=O)C(=O)N[C@@H](CCCNC(=N)N)C(=O)N[C@@H](CC(C)C)C(=O)N[C@@H](CCC(N)=O)C(=O)O)[C@@H](C)O [[N--MePhe^1, Phe^3, Leu^3]pMOT(1-14), [1-N-Methylphenylalanine, 3-phenylalanine, 13-leucine] motilin-(1-14)-peptide (Porcine), Bis-trifluoroacetate Salt] (H-[NMeF]VFIFTYGELQRLQ-OH)",10.7,< 4.5
"CC[C@H](C)[C@H](NC(=O)[C@H](Cc1ccccc1)NC(=O)[C@@H](NC(=O)[C@@H](N)Cc1ccccc1)C(C)C)C(=O)N[C@@H](Cc1ccccc1)C(=O)N[C@H](C(=O)N[C@@H](Cc1ccc(O)cc1)C(=O)N[C@H](C)C(=O)N[C@@H](CCC(=O)O)C(=O)N[C@@H](CC(C)C)C(=O)N[C@@H](CCC(N)=O)C(=O)N[C@@H](CCCNC(=N)N)C(=O)N[C@@H](CC(C)C)C(=O)N[C@@H](CCC(N)=O)C(=O)O)[C@@H](C)O [[Phe^3, D-Ala^8, Leu^13]pMOT(1-14), H-Phe-Val-Phe-Ile-Phe-Thr-Tyr-D-Ala-Glu-Leu-Gln-Arg-Leu-Gln-OH] (H-FVFIFTY[dA]ELQRLQ-OH)",49,< 4.5
